Test results from US20230122249A1, “1H-PYRAZOLO[4,3-d]PYRIMIDINE COMPOUNDS AS TOLL-LIKE RECEPTOR 7 (TLR7) AGONISTS” (BRISTOL-MYERS SQUIBB COMPANY, priority 2020, published 2023).

Key:
human TLR7 = target: T1, human TLR7 (Homo sapiens, UniProt Q9NYK1); assay: Human TLR7 agonist activity (hTLR7 reporter) assay in HEK-Blue TLR7 cells, SEAP readout; format: cell-based; details: 18 h treatment, average where assay repeated
T1 construct: host or cells: HEK-Blue TLR7 cells (engineered human embryonic kidney cells)
T1 sequence (Q9NYK1 27-1049): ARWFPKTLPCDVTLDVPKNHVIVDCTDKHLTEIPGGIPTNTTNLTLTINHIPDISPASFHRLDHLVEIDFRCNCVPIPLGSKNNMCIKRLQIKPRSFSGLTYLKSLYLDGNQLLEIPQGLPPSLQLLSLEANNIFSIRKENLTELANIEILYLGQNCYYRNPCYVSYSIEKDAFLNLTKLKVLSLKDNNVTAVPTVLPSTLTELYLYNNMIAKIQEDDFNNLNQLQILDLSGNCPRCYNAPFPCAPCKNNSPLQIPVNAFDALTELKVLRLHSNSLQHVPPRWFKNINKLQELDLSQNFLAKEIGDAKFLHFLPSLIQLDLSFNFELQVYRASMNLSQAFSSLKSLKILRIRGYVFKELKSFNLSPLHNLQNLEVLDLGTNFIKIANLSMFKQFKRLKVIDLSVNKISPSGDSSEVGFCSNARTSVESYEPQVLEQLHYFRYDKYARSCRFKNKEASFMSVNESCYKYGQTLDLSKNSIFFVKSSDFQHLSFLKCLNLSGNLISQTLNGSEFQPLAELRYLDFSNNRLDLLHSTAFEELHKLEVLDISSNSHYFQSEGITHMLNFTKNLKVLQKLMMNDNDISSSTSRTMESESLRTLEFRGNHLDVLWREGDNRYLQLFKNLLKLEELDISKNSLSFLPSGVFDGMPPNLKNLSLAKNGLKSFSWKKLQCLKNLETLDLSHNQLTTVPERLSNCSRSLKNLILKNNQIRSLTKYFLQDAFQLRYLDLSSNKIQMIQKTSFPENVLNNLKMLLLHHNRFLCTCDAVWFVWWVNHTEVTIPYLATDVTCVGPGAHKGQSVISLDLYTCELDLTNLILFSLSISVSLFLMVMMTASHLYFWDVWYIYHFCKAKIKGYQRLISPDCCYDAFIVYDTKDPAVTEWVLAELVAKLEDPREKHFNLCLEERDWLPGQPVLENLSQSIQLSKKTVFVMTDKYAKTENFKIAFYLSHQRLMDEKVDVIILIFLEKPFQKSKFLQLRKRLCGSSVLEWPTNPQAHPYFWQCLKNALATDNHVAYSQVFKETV
Outline: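 HEK-Blue TLR7 cells (15,000/well) treated with compound for 18 h at 37 °C, 5% CO2. Secreted SEAP measured with Quanti-Blue, 30 min, OD 620 nm. EC50 taken as concentration giving half-maximal response between baseline and maximum.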

[1] = test system: CD69 in human whole blood; assay: Induction of CD69 in human whole blood (hWB); format: cell-based; details: heparinized human whole blood, 17 h, CD69 surface staining; 100% set to 1 uM resiquimod; average where assay repeated
Outline: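 hWB stimulated with compound at 1 uM final (1 mM stock), 37° C o/n (17 hrs). Surface CD69-PE staining with CD14/CD19 gating, fix/lysis, then flow cytometry read. IC50 curves with 100% set to 1 uM resiquimod.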

Row | EC50 (human TLR7) [nM] | EC50 [1] [nM] | Structure (SMILES)
1 | 40.6 | 1.2 | CCC[C@@H](CCO)Nc1nc(N)nc2c(F)nn(Cc3ccc(CN4CC5(CNC5)C4)cc3OC)c12 [Compound 245]
2 | 180 | 11.1 | CCC[C@@H](CCO)Nc1nc(N)nc2c(C)nn(Cc3ccc(CN4CC5(CNC5)C4)cc3OC)c12 [Compound 246]
3 | 197 | 37.1 | COc1cc(C(=O)N2CC3(CN(C)C3)C2)ccc1Cn1ncc2nc(N)nc(NCc3noc(C)n3)c21 [Compound 247]
4 | 73 | 25.4 | COc1cc(C(=O)N2CC3(C2)CN(C(C)C)C3)ccc1Cn1ncc2nc(N)nc(NCc3noc(C)n3)c21 [Compound 248]
5 | 55.6 | 1.6 | CCC[C@@H](CCO)Nc1nc(N)nc2cnn(Cc3ccc(CN4CC5(CN(CC)C5)C4)cc3OC)c12 [Compound 249]
6 | 45.3 | 1.1 | CCC[C@@H](CCO)Nc1nc(N)nc2cnn(Cc3ncc(C4CC5(C4)CN(C4CCOCC4)C5)cc3OC)c12 [Compound 250]
7 | 134 | 1.8 | CCC[C@@H](CCO)Nc1nc(N)nc2cnn(Cc3ncc(C4CC5(C4)CN(C(C)C)C5)cc3OC)c12 [Compound 251]
8 | 6.1 | 0.4 | CCC[C@@H](CCO)Nc1nc(N)nc2cnn(Cc3ccc(CN4CC5(C4)CN(CC4CCC4)C5)cc3OC)c12 [Compound 252]
9 | 14.5 | 1.3 | CCC[C@@H](CCO)Nc1nc(N)nc2cnn(Cc3ccc(CN4CC5(C4)CN(CC4CC4)C5)cc3OC)c12 [Compound 253]
10 | 244 | 18.7 | COc1cc(CN2CC3(C2)CS(=O)(=O)C3)ccc1Cn1ncc2nc(N)nc(NCc3noc(C)n3)c21 [Compound 254]
11 | 175 | 5.7 | CCCCNc1nc(N)nc2cnn(Cc3ccc(CN4CCC5(CC4)CNC5)cc3OC)c12 [Compound 255]
12 | 267 | 10.7 | CCCCNc1nc(N)nc2cnn(Cc3ccc(CN4CC5(CCNCC5)C4)cc3OC)c12 [Compound 256]
13 | 198 | 4.8 | CCCCNc1nc(N)nc2cnn(Cc3ccc(CN4CC5(CCNC5)C4)cc3OC)c12 [Compound 257]
14 | 147 | 6.5 | CCCCNc1nc(N)nc2cnn(Cc3ccc(CN4CCC5(CNC5)C4)cc3OC)c12 [Compound 258]
15 | 62.5 | 13.6 | CCCCNc1nc(N)nc2cnn(Cc3ccc(CN4CCC5(CC4)CN(CCO)C5)cc3OC)c12 [Compound 259]
16 | 120 | 8 | CCCCNc1nc(N)nc2cnn(Cc3ccc(CN4CC5(CCN(CCO)C5)C4)cc3OC)c12 [Compound 261]
17 | 64.5 | 4.4 | CCCCNc1nc(N)nc2cnn(Cc3ccc(CN4CCC5(C4)CN(CCO)C5)cc3OC)c12 [Compound 262]
18 | 68.7 | 12.7 | COc1cc(CN2CC3(C2)CN(C(C)C)C3)ccc1Cn1ncc2nc(N)nc(NCc3noc(C)n3)c21 [Compound 263]
19 | 916 | 78.2 | COc1cc(CN2CC3(C2)CN(C(C)=O)C3)ccc1Cn1ncc2nc(N)nc(NCc3noc(C)n3)c21 [Compound 264]
20 | 177 | 33.1 | CCCCNc1nc(N)nc2cnn(Cc3ccc(CN4CCC5(CCNC5)C4)cc3OC)c12 (stereo not drawn) [Compound 265]
21 | 141 | 9.3 | CCCCNc1nc(N)nc2cnn(Cc3ccc(CN4CCC5(CCNCC5)CC4)cc3OC)c12 [Compound 266]
22 | 58.5 | 1.3 | CCCCNc1nc(N)nc2cnn(Cc3ccc(CN4CCC5(CCN(CCO)C5)C4)cc3OC)c12 (stereo not drawn) [Compound 267]
23 | 69.9 | 3.7 | CCC[C@@H](CCO)Nc1nc(N)nc2c(C)nn(Cc3ccc(CNC4CC5(C4)CN(C)C5)cc3OC)c12 [Compound 269]
24 | 11.5 | 0.2 | CCC[C@@H](CCO)Nc1nc(N)nc2cnn(Cc3ncc(C4CC5(CCN(C6CCOCC6)CC5)C4)cc3OC)c12 [Compound 270]
25 | 13.3 | 0.6 | CCC[C@@H](CCO)Nc1nc(N)nc2cnn(Cc3ncc(C4CCC5(CC4)CN(C4CCOCC4)C5)cc3OC)c12 [Compound 271]
26 | 668 | 31.9 | CCC[C@@H](CCO)Nc1nc(N)nc2cnn(Cc3ncc(C4=CC5(CCNCC5)C4)cc3OC)c12 [Compound 272, (3S)-3-({5-amino-1-[(5-{7-azaspiro[3.5]non-1-en-2-yl}-3-methoxypyridin-2-yl)methyl]-1H-pyrazolo[4,3-d]pyrimidin-7-yl}amino)hexan-1-ol]
27 | 47.5 | 1.5 | CCC[C@@H](CCO)Nc1nc(N)nc2cnn(Cc3ncc(C4=CC5(CCN(C6CCOCC6)CC5)C4)cc3OC)c12 [Compound 273, (3S)-3-{[5-amino-1-({3-methoxy-5-[7-(oxan-4-yl)-7-azaspiro[3.5]non-1-en-2-yl]pyridin-2-yl}methyl)-1H-pyrazolo[4,3-d]pyrimidin-7-yl]amino}hexan-1-ol]
28 | 82.3 | 1.1 | CCC[C@@H](CCO)Nc1nc(N)nc2cnn(Cc3ncc(C4=CC5(CCN(C(C)C)CC5)C4)cc3OC)c12 [Compound 274]
29 | 11 | 1.2 | CCC[C@@H](CCO)Nc1nc(N)nc2cnn(Cc3ncc(C4=CC5(CCN(CC(C)C)CC5)C4)cc3OC)c12 [Compound 275]
30 | 19.7 | 0.3 | CCC[C@@H](CCO)Nc1nc(N)nc2cnn(Cc3ncc(C4CCC5(CC4)CN(C(C)C)C5)cc3OC)c12 [Compound 277]
